Measurements published in article PMC5054527, “Mechanism of high affinity inhibition of the human urate transporter URAT1” (Scientific Reports, 2016).
Substitutions are numbered along the chain they refer to. Where two headings read alike, the source gives them in different places.

Legend:
Experiment in all cases: URAT1 uric acid transport activity assay
Type in all cases: cell-based
[1] = molecular target: T1, r-V31L rURAT1 point mutant (Rattus norvegicus, UniProt Q3ZAV1, V31L)
T1 construct: expressed in transfected cells; host or cells: HEK-293T
T1 sequence (Q3ZAV1 1-553 V31L): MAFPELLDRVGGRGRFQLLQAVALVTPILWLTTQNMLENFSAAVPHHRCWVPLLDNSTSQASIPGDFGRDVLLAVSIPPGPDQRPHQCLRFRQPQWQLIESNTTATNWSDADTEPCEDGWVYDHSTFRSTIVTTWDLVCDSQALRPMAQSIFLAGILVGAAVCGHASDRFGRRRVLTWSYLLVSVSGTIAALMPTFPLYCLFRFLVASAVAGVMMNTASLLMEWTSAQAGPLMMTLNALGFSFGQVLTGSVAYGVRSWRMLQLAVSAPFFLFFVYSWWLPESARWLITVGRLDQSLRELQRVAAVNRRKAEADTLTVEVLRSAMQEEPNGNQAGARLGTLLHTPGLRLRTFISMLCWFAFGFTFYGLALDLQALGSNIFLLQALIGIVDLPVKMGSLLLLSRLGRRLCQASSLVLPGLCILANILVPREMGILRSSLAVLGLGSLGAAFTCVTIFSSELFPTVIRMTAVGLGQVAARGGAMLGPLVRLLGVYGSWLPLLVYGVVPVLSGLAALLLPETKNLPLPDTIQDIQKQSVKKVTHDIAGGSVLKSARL
How it was run: (§1)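 Rat URAT1 point or double mutants in pCMV6/neo were transiently transfected into cells and assayed the next day. Compounds were preincubated for 5 minutes, then 100 μM 14C-uric acid uptake was measured over 10 minutes in triplicate. IC50 came from four-parameter variable-slope nonlinear regression.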

[2] = molecular target: T2, r-Y365F rURAT1 point mutant (Rattus norvegicus, UniProt Q3ZAV1, Y365F); details: for fold increased affinity of r-Y365F compared to rURAT1: from IC50 values
T2 sequence (Q3ZAV1 1-553 Y365F): T1 sequence (Q3ZAV1 1-553 V31L) with L31V, Y365F
How it was run: as §1

[3] = molecular target: T3, r-P27S rURAT1 point mutant (Rattus norvegicus, UniProt Q3ZAV1, P27S)
T3 sequence (Q3ZAV1 1-553 P27S): T1 sequence (Q3ZAV1 1-553 V31L) with P27S, L31V
How it was run: as §1

[4] = r-Y365F, MES pH 5.5, 100 μM 14C-uric acid, read-out: IC50 (uric acid transport)

`CCc1oc2ccccc2c1C(=O)c1cc(Br)c(O)c(Br)c1` [benzbromarone] was tested, and the IC50 [1] was 17 ± 3.4 µM, the IC50 [2] was 9.4 ± 1.6 µM and the IC50 [3] was 16 ± 1.7 µM.
For `O=C(O)CSc1nnc(Br)n1-c1ccc(C2CC2)c2ccccc12` [lesinurad, 2-((5-bromo-4-(4-cyclopropylnaphthalen-1-yl)-4H-1,2,4-triazol-3-yl)thio)acetic acid], the IC50 ([1]; r-V31L, MES pH 5.5, 100 μM 14C-uric acid, read-out: IC50 (uric acid transport)) was 85 ± 4.5 µM, the IC50 [2, 4] was 15 ± 3 µM and the IC50 ([3]; r-P27S, MES pH 5.5, 100 μM 14C-uric acid, read-out: IC50 (uric acid transport)) was 77 ± 3.2 µM.
`O=C1C(CC[S+]([O-])c2ccccc2)C(=O)N(c2ccccc2)N1c1ccccc1` (stereo not shown) [sulfinpyrazone] was tested, and the IC50 ([1]; r-V31L, HEPES pH 7.3, 100 μM 14C-uric acid, read-out: IC50 (uric acid transport)) was 266 ± 70 µM, the “fold increased affinity of r-Y365F compared to rURAT1” value [2] was 2.7 fold and the IC50 ([2]; r-Y365F, HEPES pH 7.3, 100 μM 14C-uric acid, read-out: IC50 (uric acid transport)) was 255 ± 27 µM. The “fold higher affinity of r-P27S compared to rURAT1” value ([3]; from IC50 values) was 2.1 fold and the IC50 ([3]; r-P27S, HEPES pH 7.3, 100 μM 14C-uric acid, read-out: IC50 (uric acid transport)) was 321 ± 77 µM.
For `O=c1[nH]c(=O)c2[nH]c(=O)[nH]c2[nH]1` [uric acid], the “fold increased affinity of r-Y365F compared to rURAT1” value [2] was 1.6 fold and the IC50 [2, 4] was 1640 µM.
